In US7964720B2, “Method of making porphyrins” (North Carolina State University, priority 2007, dated 2011):

Tests used:
[1] = Text: 4. Solubility. […] We compared the solubility of 1, Pd-1, Zn-1 and Mg-1 in common organic solvents (CH2Cl2, THF, MeOH, ethyl acetate, toluene).
[2] = background statement; cited from earlier work
[3] = Stability of the magnesium chelate in solution and on silica column chromatography; assay type: physicochemical
Description: Thus, refluxing a mixture of 2 (100 mM) in toluene containing DBU (10 equiv vs. 2) and MgBr2 (3 equiv) in the presence of air afforded Mg(II)porphine (Mg-1) in 41% yield. Note that no quinone oxidant is required. Mg(II)porphine was purified by filtration through an alumina column. No free base porphine was detected in the reaction mixture. […] Neither starting material nor macrocyclic byproducts were detected. Therefore we performed the purification of Mg-1 without column chromatography. The crude reaction mixture was concentrated. The resulting oily material was treated with THF, filtered (to remove the polymeric material and inorganic salt), and filtrate was concentrated. Subsequent washing with water (to remove an excess of DBU) and crystallization from ethanol/water afforded Mg-1 in satisfactory purity. […] Note that Mg(II)porphine (Mg-1) was previously prepared by metalation of 1.^2

Row | general trend in solubility [1] | solubility in common organic solvents [1] | stability in solution ([3]; in solution) | behaviour upon silica column chromatography ([3]; silica column chromatography) | Compound | solubility of the free base [2]
1 | Pd-1<1<Zn-1<<Mg-1 | poor solubility |  |  | C1=Cc2cc3ccc(cc4nc(cc5ccc(cc1n2)[nH]5)C=C4)[nH]3 [compound 1, Porphine] | extremely low solubility
2 | Pd-1<1<Zn-1<<Mg-1 | sufficiently high | stable in solution | partial decomplexation | Mg(II)porphine [Mg-1] | 
3 | Pd-1<1<Zn-1<<Mg-1 |  |  |  | Pd(II)porphine [Pd-1] | 
4 | Pd-1<1<Zn-1<<Mg-1 |  |  |  | Zn(II)porphine [Zn-1] | 
